32 compounds from patent US10112939B2, “Tied-back benzamide derivatives as potent rock inhibitors” (Bristol-Myers Squibb Company, priority 2014, dated 2018) can be followed below.

The target of the assay is ROCK2 (Homo sapiens (Human), UniProt O75116). The assay can be described thus: ROCK assay (peptide substrate phosphorylation, LABCHIP 3000 Reader). Format: biochemical. Particulars: 5 μM ATP, 1.5 μM peptide substrate. How it is done:
Compounds were dissolved in DMSO so that the final concentration of DMSO was <2%, and the reaction was initiated with Rho kinase variants. After incubation, the reaction was terminated by the addition of EDTA and the phosphorylated and non-phosphorylated peptides separated using a LABCHIP® 3000 Reader (Caliper Life Sciences). […] Compounds were tested in dose-response format, and the inhibition of kinase activity was calculated at each concentration of compound.

SMILES strings stand for the structures.

Sequence of ROCK2 (O75116 whole entry, species assumed): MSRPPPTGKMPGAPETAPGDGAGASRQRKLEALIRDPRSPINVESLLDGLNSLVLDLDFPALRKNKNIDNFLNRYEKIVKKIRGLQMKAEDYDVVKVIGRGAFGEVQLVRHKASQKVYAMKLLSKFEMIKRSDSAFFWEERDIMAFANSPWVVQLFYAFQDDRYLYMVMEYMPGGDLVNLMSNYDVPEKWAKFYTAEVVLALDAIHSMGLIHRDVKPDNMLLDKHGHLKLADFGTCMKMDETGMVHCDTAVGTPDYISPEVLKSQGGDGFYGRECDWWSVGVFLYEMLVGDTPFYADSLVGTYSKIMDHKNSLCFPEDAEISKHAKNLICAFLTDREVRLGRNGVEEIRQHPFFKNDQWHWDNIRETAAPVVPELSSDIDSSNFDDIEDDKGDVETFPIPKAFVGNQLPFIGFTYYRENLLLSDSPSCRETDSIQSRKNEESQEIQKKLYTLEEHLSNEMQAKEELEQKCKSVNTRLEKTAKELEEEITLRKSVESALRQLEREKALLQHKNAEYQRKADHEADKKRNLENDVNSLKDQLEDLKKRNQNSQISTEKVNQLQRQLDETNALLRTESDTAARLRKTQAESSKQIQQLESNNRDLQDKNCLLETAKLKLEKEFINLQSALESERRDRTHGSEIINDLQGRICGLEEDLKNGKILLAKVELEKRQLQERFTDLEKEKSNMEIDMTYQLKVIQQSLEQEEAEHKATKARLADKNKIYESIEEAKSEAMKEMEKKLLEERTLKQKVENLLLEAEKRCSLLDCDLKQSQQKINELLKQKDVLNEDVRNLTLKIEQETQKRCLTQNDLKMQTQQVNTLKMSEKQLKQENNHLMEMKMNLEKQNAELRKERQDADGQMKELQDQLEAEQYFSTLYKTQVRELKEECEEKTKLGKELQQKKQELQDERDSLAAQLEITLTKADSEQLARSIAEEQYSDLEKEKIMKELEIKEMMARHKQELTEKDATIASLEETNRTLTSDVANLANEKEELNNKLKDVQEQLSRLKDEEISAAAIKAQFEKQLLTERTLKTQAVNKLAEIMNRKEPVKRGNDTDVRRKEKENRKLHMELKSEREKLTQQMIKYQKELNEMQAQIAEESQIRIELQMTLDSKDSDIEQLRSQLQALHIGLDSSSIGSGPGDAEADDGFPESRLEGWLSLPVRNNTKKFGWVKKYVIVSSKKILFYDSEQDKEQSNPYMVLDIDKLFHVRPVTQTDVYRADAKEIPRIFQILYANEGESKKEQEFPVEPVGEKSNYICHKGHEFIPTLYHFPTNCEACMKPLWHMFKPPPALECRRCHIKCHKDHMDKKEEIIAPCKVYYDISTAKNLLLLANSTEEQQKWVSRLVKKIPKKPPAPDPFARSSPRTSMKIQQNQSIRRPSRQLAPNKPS

In turn, `CNC(=O)c1cccc([C@H]2CC(O)CN2C(=O)c2ccc(-c3cn[nH]c3)c(OC)c2)c1` (stereo partly drawn) [Example 46, 3-[(2R)-4-hydroxy-1-[3-methoxy-4-(1H-pyrazol-4-yl)benzoyl]pyrrolidin-2-yl]-N-methylbenzamide] had an IC50 of 18.2 nM.

On to `COc1cc(C(=O)N2CC(O)C[C@@H]2c2cccc(C(=O)NCC(C)(C)O)c2)ccc1-c1cn[nH]c1` (stereo partly drawn) [Example 47, 3-[(2R)-4-hydroxy-1-[3-methoxy-4-(1H-pyrazol-4-yl)benzoyl]pyrrolidin-2-yl]-N-(2-hydroxy-2-methylpropyl)benzamide], for which the IC50 is 7.29 nM.

In turn, `COc1cc(C(=O)N2CC(O)C[C@@H]2c2cccc(C(=O)NC3CC3)c2)ccc1-c1cn[nH]c1` (stereo partly drawn) [Example 48, N-cyclopropyl-3-[(2R)-4-hydroxy-1-[3-methoxy-4-(1H-pyrazol-4-yl)benzoyl]pyrrolidin-2-yl]benzamide] returned an IC50 of 5.32 nM.

On to `CCN1CCC[C@H]1CNC(=O)c1cccc([C@H]2CC(O)CN2C(=O)c2ccc(-c3cn[nH]c3)c(OC)c2)c1` (stereo partly drawn) [Example 49, N-{[(2S)-1-ethylpyrrolidin-2-yl]methyl}-3-[(2R)-4-hydroxy-1-[3-methoxy-4-(1H-pyrazol-4-yl)benzoyl]pyrrolidin-2-yl]benzamide], for which the IC50 is 43.4 nM.

For the compound `COCCNC(=O)c1cccc([C@H]2CC(O)CN2C(=O)c2ccc(-c3cn[nH]c3)c(OC)c2)c1` (stereo partly drawn) [Example 50, 3-[(2R)-4-hydroxy-1-[3-methoxy-4-(1H-pyrazol-4-yl)benzoyl]pyrrolidin-2-yl]-N-(2-methoxyethyl) benzamide], the IC50 came out at 5.1 nM.

In turn, `COc1cc(C(=O)N2CC(O)C[C@@H]2c2cccc(C(=O)NCC3CC3)c2)ccc1-c1cn[nH]c1` (stereo partly drawn) [Example 51, N-(cyclopropylmethyl)-3-[(2R)-4-hydroxy-1-[3-methoxy-4-(1H-pyrazol-4-yl)benzoyl]pyrrolidin-2-yl]benzamide] returned an IC50 of 2.71 nM.

`COc1cc(C(=O)N2CC(O)C[C@@H]2c2cccc(C(=O)NC(C)C)c2)ccc1-c1cn[nH]c1` (stereo partly drawn) [Example 52, 3-[(2R)-4-hydroxy-1-[3-methoxy-4-(1H-pyrazol-4-yl)benzoyl]pyrrolidin-2-yl]-N-(propan-2-yl)benzamide] came in with an IC50 of 6.68 nM.

For `COc1cc(C(=O)N2CC(O)C[C@@H]2c2cccc(C(=O)NC3CCC3)c2)ccc1-c1cn[nH]c1` (stereo partly drawn) [Example 54, N-cyclobutyl-3-[(2R)-4-hydroxy-1-[3-methoxy-4-(1H-pyrazol-4-yl)benzoyl]pyrrolidin-2-yl]benzamide], half-maximal inhibition (IC50) required 5.09 nM.

`COc1cc(C(=O)N2CC(O)C[C@@H]2c2cccc(C(=O)NCc3ncco3)c2)ccc1-c1cn[nH]c1` (stereo partly drawn) [Example 55, 3-[(2R)-4-hydroxy-1-[3-methoxy-4-(1H-pyrazol-4-yl)benzoyl]pyrrolidin-2-yl]-N-(1,3-oxazol-2-ylmethyl)benzamide]: the IC50 came out at 2.5 nM.

`COc1cc(C(=O)N2CC(O)C[C@@H]2c2cccc(C(=O)NC3CCOCC3)c2)ccc1-c1cn[nH]c1` (stereo partly drawn) [Example 56, 3-[(2R)-4-hydroxy-1-[3-methoxy-4-(1H-pyrazol-4-yl)benzoyl]pyrrolidin-2-yl]-N-(oxan-4-yl)benzamide] returned a half-maximal inhibitory concentration (IC50) of 7.17 nM.

Regarding `COc1cc(C(=O)N2CC(O)C[C@@H]2c2cccc(C(=O)NC3(C)CC3)c2)ccc1-c1cn[nH]c1` (stereo partly drawn) [Example 57, 3-[(2R)-4-hydroxy-1-[3-methoxy-4-(1H-pyrazol-4-yl)benzoyl]pyrrolidin-2-yl]-N-(1-methylcyclopropyl) benzamide], the IC50 amounted to 43.4 nM.

`COc1cc(C(=O)N2CC(O)C[C@@H]2c2cccc(C(=O)NCc3cc(C)no3)c2)ccc1-c1cn[nH]c1` (stereo partly drawn) [Example 58, 3-[(2R)-4-hydroxy-1-[3-methoxy-4-(1H-pyrazol-4-yl)benzoyl]pyrrolidin-2-yl]-N-[(3-methyl-1,2-oxazol-5-yl)methyl] benzamide] registered an IC50 of 5.32 nM.

`COc1cc(C(=O)N2CC(O)C[C@@H]2c2cccc(C(=O)NCc3cc(C)on3)c2)ccc1-c1cn[nH]c1` (stereo partly drawn) [Example 59, 3-[(2R)-4-hydroxy-1-[3-methoxy-4-(1H-pyrazol-4-yl)benzoyl]pyrrolidin-2-yl]-N-[(5-methyl-1,2-oxazol-3-yl)methyl] benzamide] displayed an IC50 of 1.8 nM.

In the case of `COc1cc(C(=O)N2CC(O)C[C@@H]2c2cccc(C(=O)NCC(F)F)c2)ccc1-c1cn[nH]c1` (stereo partly drawn) [Example 60, N-(2,2-difluoroethyl)-3-[(2R)-4-hydroxy-1-[3-methoxy-4-(1H-pyrazol-4-yl)benzoyl]pyrrolidin-2-yl]benzamide], the IC50 stood at 4.08 nM.

On to `COc1cc(C(=O)N2CC(O)C[C@@H]2c2cccc(C(=O)N3CC(C#N)C3)c2)ccc1-c1cn[nH]c1` (stereo partly drawn) [Example 61, 1-{3-[(2R)-4-hydroxy-1-[3-methoxy-4-(1H-pyrazol-4-yl)benzoyl]pyrrolidin-2-yl]benzoyl} azetidin-3-carbonitrile], for which the IC50 was 102 nM.

In turn, `COc1cc(C(=O)N2CC(O)C[C@@H]2c2cccc(C(=O)N3CC(OC)C3)c2)ccc1-c1cn[nH]c1` (stereo partly drawn) [Example 62, (5R)-1-[3-methoxy-4-(1H-pyrazol-4-yl)benzoyl]-5-[3-(3-methoxyazetidine-1-carbonly)phenyl] pyrrolidin-3-ol] displayed an IC50 of 316 nM.

As to `COc1cc(C(=O)N2CC(O)C[C@@H]2c2cccc(C(=O)NCc3ccc(C(F)(F)F)cc3F)c2)ccc1-c1cn[nH]c1` (stereo partly drawn) [Example 63, N-{[2-fluoro-4-(trifluoromethyl)phenyl]methyl}-3-[(2R)-4-hydroxy-1-[3-methoxy-4-(1H-pyrazol-4-yl)benzoyl]pyrrolidin-2-yl]benzamide], the IC50 was found to be 5.25 nM.

`COc1cc(C(=O)N2CC(O)C[C@@H]2c2cccc(C(=O)N3CC(F)C3)c2)ccc1-c1cn[nH]c1` (stereo partly drawn) [Example 64, (5R)-5-[3-(3-fluoroazetidine-1-carbonyl)phenyl]-1-[3-methoxy-4-(1H-pyrazol-4-yl)benzoyl]pyrrolidin-3-ol]: the concentration for half-maximal inhibition (IC50) stood at 204 nM.

`COc1cc(C(=O)N2CC(O)C[C@@H]2c2cccc(C(=O)N3CC(F)(F)C3)c2)ccc1-c1cn[nH]c1` (stereo partly drawn) [Example 65, (5R)-5-[3-(3,3-difluoroazetidine-1-carbonyl)phenyl]-1-[3-methoxy-4-(1H-pyrazol-4-yl)benzoyl]pyrrolidin-3-ol]: half-maximal inhibition (IC50) required 91.4 nM.

As to `COc1cc(C(=O)N2CC(O)C[C@@H]2c2cccc(C(=O)NCc3cc(F)cc(C(F)(F)F)c3)c2)ccc1-c1cn[nH]c1` (stereo partly drawn) [Example 66, N-{[3-fluoro-5-(trifluoromethyl)phenyl]methyl}-3-[(2R)-4-hydroxy-1-[3-methoxy-4-(1H-pyrazol-4-yl)benzoyl]pyrrolidin-2-yl]benzamide], the IC50 worked out at 4.35 nM.

`COc1cc(C(=O)N2CC(O)C[C@@H]2c2cccc(C(=O)N3CCC3)c2)ccc1-c1cn[nH]c1` (stereo partly drawn) [Example 67, (5R)-5-[3-(azetidine-1-carbonyl)phenyl]-1-[3-methoxy-4-(1H-pyrazol-4-yl)benzoyl]pyrrolidin-3-ol]: the IC50 came out at 293 nM.

`COc1cc(C(=O)N2CCNCC2c2ccccc2)ccc1-c1cn[nH]c1` (centres unmarked) [Example 68, 1-[3-Methoxy-4-(1H-pyrazol-4-yl)benzoyl]-2-phenylpiperazine] came in with an IC50 of 60.2 nM.

With `COc1cc(C(=O)N[C@@H]2CNC[C@H]2c2ccccc2)ccc1-c1cn[nH]c1` [Example 69, 3-Methoxy-N-[(3S,4R)-4-phenylpyrrolidin-3-yl]-4-(1H-pyrazol-4-yl)benzamide], inhibition was half-maximal at 3.59 nM (IC50).

Compound `COc1cc(C(=O)N2CCCC2c2cccc(-c3cn[nH]c3)c2)ccc1-c1cn[nH]c1` (centres unmarked) [Example 71, 4-(2-Methoxy-4-{2-[3-(1H-pyrazol-4-yl)phenyl]pyrrolidine-1-carbonyl}phenyl)-1H-pyrazole] yielded an IC50 of 54.9 nM.

`COc1cc(-c2cn[nH]c2)ccc1C(=O)N1CCCC1c1cccc(-c2cn[nH]c2)c1` (centres unmarked) [Example 72, 4-(3-methoxy-4-{2-[3-(1H-pyrazol-4-yl)phenyl]pyrrolidine-1-carbonyl}phenyl)-1H-pyrazole] gave a 50% inhibitory concentration (IC50) of 1600 nM.

Compound `COc1cc(C(=O)N2CCCC2c2cccc(-c3ccnn3C)c2)ccc1-c1cn[nH]c1` (centres unmarked) [Example 73, 5-(3-{1-[3-methoxy-4-(1H-pyrazol-4-yl)benzoyl]pyrrolidin-2-yl}phenyl)-1-methyl-1H-pyrazole] returned an IC50 of 1530 nM.

As for `COc1cc(C(=O)N2CCCC2c2cccc(-c3cnn(CC(C)(C)O)c3)c2)ccc1-c1cn[nH]c1` (centres unmarked) [Example 74, 1-[4-(3-{1-[3-methoxy-4-(1H-pyrazol-4-yl)benzoyl]pyrrolidin-2-yl}phenyl)-1H-pyrazol-1-yl]-2-methylpropan-2-ol], the concentration for half-maximal inhibition (IC50) came out at 901 nM.

On to `COc1cc(C(=O)N2CCCC2c2cccc(-c3c(C)noc3C)c2)ccc1-c1cn[nH]c1` (centres unmarked) [Example 75, 4-(3-{1-[3-methoxy-4-(1H-pyrazol-4-yl)benzoyl]pyrrolidin-2-yl}phenyl)-3,5-dimethyl-1,2-oxazole], for which inhibition was half-maximal at 1570 nM (IC50).

Consider `COc1cc(C(=O)N2CCCC2c2cccc(-c3ccoc3)c2)ccc1-c1cn[nH]c1` (centres unmarked) [Example 76, 4-(4-{2-[3-(furan-3-yl)phenyl]pyrrolidine-1-carbonyl}-2-methoxyphenyl)-1H-pyrazole], for which half-maximal inhibition (IC50) was put at 320 nM.

Compound `COc1cc(C(=O)N2CCCC2c2cccc(-c3ccn[nH]3)c2)ccc1-c1cn[nH]c1` (centres unmarked) [Example 77, 4-(2-methoxy-4-{2-[3-(1H-pyrazol-5-yl)phenyl]pyrrolidine-1-carbonyl}phenyl)-1H-pyrazole] displayed an IC50 of 887 nM.

Regarding `COc1cc(C(=O)N2CC(F)C[C@@H]2c2cccc(C(=O)NC3CC3)c2)ccc1-c1cn[nH]c1` (stereo partly drawn) [Example 78, N-Cyclopropyl-3-[(2R)-4-fluoro-1-[3-methoxy-4-(1H-pyrazol-4-yl)benzoyl]pyrrolidin-2-yl]benzamide], half-maximal inhibition (IC50) was put at 4.7 nM.

Consider `COc1cc(C(=O)N2CC(F)(F)C[C@@H]2c2cccc(C(=O)NC3CC3)c2)ccc1-c1ccncc1` [Example 79, N-Cyclopropyl-3-[(2R)-4,4-difluoro-1-[3-methoxy-4-(pyridin-4-yl)benzoyl]pyrrolidin-2-yl]benzamide], for which the IC50 was 24.3 nM.

Usually IC50 stands for the concentration needed to halve the response being measured. High values mean weaker potency, low ones greater potency.
